Experimental data reported in US20240246941A1, “SUBSTITUTED 4-(3-AMINOPROP-1-YL)AMINOQUINOLINE ANALOGS AS MODULATORS OF MELANOMA-ASSOCIATED ANTIGEN 11 UBIQUITIN LIGASE” (ST. JUDE CHILDREN'S RESEARCH HOSPITAL, INC., priority 2020, published 2024).

target: interaction between GST-MAGEA11 MHD and FAM-PCF11_4 peptide (MAGE-A11:PCF11) (Homo sapiens (Human), UniProt P43364); assay: TR-FRET dose response competition assay for disruption of MAGE-A11:PCF11 binding; settings: Dose response TR-FRET screening of nine scaffold groups against MAGE-A11:PCF11; read-out: consensus IC50
Sequence (P43364 218-429): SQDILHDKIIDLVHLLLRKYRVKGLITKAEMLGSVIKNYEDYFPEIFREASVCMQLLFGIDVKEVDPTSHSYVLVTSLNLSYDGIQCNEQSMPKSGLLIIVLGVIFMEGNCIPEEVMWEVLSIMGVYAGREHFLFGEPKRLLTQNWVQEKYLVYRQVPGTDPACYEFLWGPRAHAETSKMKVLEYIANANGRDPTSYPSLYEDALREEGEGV
In short: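 Competition TR-FRET at room temperature in 50 mM Tris pH 7.5, 20 mM MgCl2, 0.1 mg/ml BSA, 1 mM DTT: final 5 nM GST-MAGEA11 MHD, 5 nM Tb-anti-GST, 200 nM FAM-PCF11_4, 90 min. Ratio 520/490 nm converted to % inhibition; IC50 from sigmoidal fit.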

SMILES	IC50 [µM]
CCCCOc1ccc(N(C(C)=O)C2=C(Cl)C(=O)c3ccccc3C2=O)cc1 [SJ000032717-1]	8.71
CCCN1C(=O)c2ccccc2NC1c1ccc(Cl)cc1Cl (centres unmarked) [SJ000288424-2]	69.9
CCCCn1c(=O)[nH]c(=O)c2c1nc(-c1ccc(CC)c([N+](=O)[O-])c1)n2C [SJ000378868-1]	69.9
COc1ccc(C2Nc3ccccc3C(=O)N2Cc2ccccc2)cc1CSc1ccccn1 (centres unmarked) [SJ000111312-2]	69.9
COc1cccc(OCc2cc(C3Nc4ccccc4C(=O)N3Cc3ccccc3)ccc2OC)c1 (centres unmarked) [SJ000295704-1]	69.9
COc1ccc(F)cc1CNCCCNc1ccnc2cc(-c3cc(C(F)(F)F)cc(C(F)(F)F)c3)ccc12 [SJ000311273-1]	7.69
N#Cc1cccc(CNCCCNc2ccnc3cc(Cl)ccc23)c1 [SJ000523063-1]	69.9
Cn1c(=O)c2nc(-c3ccc(S(=O)(=O)O)cc3)[nH]c2n(C)c1=O [SJ000287642-4]	21.8
Cc1ccc(NC2=C(N)C(=O)c3ccccc3C2=O)cc1 [SJ000562618-1]	60.6
CCCn1c(-c2ccc(Cl)cc2)nc2c1c(=O)[nH]c(=O)n2Cc1ccccc1 [SJ000375541-1]	69.9
COc1ccc(F)cc1CNCCCNc1ccnc2cc(Cc3ccc(C#N)cc3)ccc12 [SJ000311305-1]	69.9
Cc1ccc(S(=O)(=O)c2nc(-c3ccccc3C)oc2N2CC(C)OC(C)C2)cc1 (centres unmarked) [SJ000329041-1]	11.8
NC1=C(Nc2ccccc2)C(=O)c2ccccc2C1=O [SJ000562543-1]	60.8
Cc1ccc(C2Nc3ccccc3C(=O)N2Cc2ccccc2)cc1 (centres unmarked) [SJ000019545-2]	69.9
O=S(=O)(c1ccc(Cl)cc1)c1nc(-c2ccc(Cl)cc2)oc1N1CCOCC1 [SJ000230692-1]	69.9
COc1ccc(F)cc1CNCCCNc1ccnc2cc(C(F)(F)F)ccc12 [SJ000521052-1]	69.9
COc1ccc(F)cc1CNCCCNc1ccnc2cc(-c3ccc(C(C)(C)C)cc3)ccc12 [SJ000311289-1]	4.62
Cn1c(-c2ccc(Cl)cc2)nc2c1c(=O)[nH]c(=O)n2Cc1ccccc1 [SJ000384618-1]	69.9
O=C1OCC(c2ccc(F)cc2)=C1c1ccc([N+](=O)[O-])cc1 [SJ000368155-1]	69.9

SMILES	IC50 [µM]
COC(=O)c1ccc(CNCCCNc2ccnc3cc(Cl)ccc23)cc1 [SJ000523067-1]	69.9
COc1ccc(C2=C(c3ccc([N+](=O)[O-])cc3)C(=O)OC2)cc1 [SJ000367280-1]	69.9
CCn1c2ccccc2c2cc(CN3CCN(S(=O)(=O)CC)CC3)ccc21 [SJ000168321-1]	69.9
O=C1C(Cl)=C(Nc2ccc(Nc3ccccc3)cc2)C(=O)c2ccccc21 [SJ000299708-1]	69.9
CC(=O)N(C1=C(Cl)C(=O)c2ccccc2C1=O)c1ccc(C(=O)O)cc1 [SJ000024935-1]	69.9
CCCOc1ccc(-c2nc3c(=O)n(C)c(=O)n(C)c3[nH]2)cc1 [SJ000205042-1]	69.9
OCCNCCNCc1ccc2[nH]c3ccccc3c2c1 [SJ000053962-1]	69.9
C=CCOc1ccc(-c2nc3c(c(=O)[nH]c(=O)n3Cc3ccccc3)n2C)cc1Br [SJ000420085-1]	69.9
CCCn1c(-c2ccc(OC)cc2)nc2c1c(=O)[nH]c(=O)n2Cc1ccccc1 [SJ000452204-1]	69.9
O=C1c2ccccc2NC(c2ccc3c(c2)OCO3)N1Cc1ccccc1 (centres unmarked) [SJ000288627-1]	69.9
Cn1c(-c2ccc(C(F)(F)F)cc2)nc2c1c(=O)[nH]c(=O)n2Cc1ccccc1 [SJ000404631-1]	69.9
CCOc1ccc(-c2nc3c(c(=O)[nH]c(=O)n3Cc3ccccc3)n2C)cc1 [SJ000389476-1]	69.9
CCOC(=O)N1CCN(Cc2ccc3c(c2)c2ccccc2n3CC)CC1 [SJ000147352-1]	29.5
CCCCn1c(=O)[nH]c(=O)c2c1nc(-c1ccc(OCCC)c(OCC)c1)n2CCOC [SJ000378946-1]	69.9
NC1=C(Nc2ccc(I)cc2)C(=O)c2ccccc2C1=O [SJ000032712-1]	69.9
N#Cc1nc(-c2ccc(Cl)cc2)oc1N1CCOCC1 [SJ000010022-1]	69.9
COc1ccc(F)cc1CNCCCNc1ccnc2cc(Oc3ccccc3OC)ccc12 [SJ000311213-1]	69.9
CCOc1ccc(NC2=C(Cl)C(=O)c3ccccc3C2=O)cc1 [SJ000122936-1]	69.9
CCCn1c(-c2ccc(C(=O)O)cc2)nc2c1c(=O)[nH]c(=O)n2Cc1ccccc1 [SJ000420129-1]	69.9

SMILES	IC50 [µM]
CCn1c2ccccc2c2cc(CN3CCC(N4CCN(c5ccccc5)CC4)CC3)ccc21 [SJ000112860-1]	69.9
CCn1c2ccccc2c2cc(CN3CCN(S(C)(=O)=O)CC3)ccc21 [SJ000168261-1]	69.9
C=CCOc1ccc(-c2nc3c(c(=O)[nH]c(=O)n3CCC)n2CCCC)cc1 [SJ000378878-1]	69.9
CCCN(CCCCNc1ccnc2cc(Cl)ccc12)Cc1cc(Br)ccc1O [SJ000311196-1]	69.9
CCn1c2ccccc2c2cc(CN3CCN(CCO)CC3)ccc21 [SJ000145592-1]	69.9
COc1ccc(O)c(C(C)NCCCNc2ccnc3cc(Cl)ccc23)c1 (centres unmarked) [SJ000311188-1]	69.9
CCCn1c(=O)[nH]c(=O)c2c1nc(-c1ccc(C(C)(C)C)cc1)n2CCN1CCOCC1 [SJ000377955-1]	69.9
CC(C)(C)c1ccc(-c2ccc3c(NCCCNCc4cccc5c4OCO5)ccnc3c2)cc1 [SJ000311288-1]	6.87
CC1CN(c2oc(-c3ccc(F)cc3)nc2C#N)CC(C)O1 (centres unmarked) [SJ000478453-1]	69.9
CC(=O)Cn1cnc2cc(-c3ccccc3)sc2c1=O [SJ000448314-1]	69.9
CC(=O)N(C1=C(Cl)C(=O)c2ccccc2C1=O)c1ccc(Br)cc1 [SJ000299699-2]	69.9
O=C1C(Cl)=C(Nc2ccc(Cl)cc2)C(=O)c2ccccc21 [SJ000297073-1]	69.9
COc1ccc(F)cc1CNCCCNc1ccnc2cc(Cc3cc(C)cc(C)c3)ccc12 [SJ000311321-1]	9.04
O=C(Cn1cnc2cc(-c3ccccc3)sc2c1=O)NCc1ccccc1Cl [SJ000455850-1]	69.9
COc1ccc(F)cc1CNCCCNc1ccnc2cc(Oc3ccc(Cl)cc3)ccc12 [SJ000311229-1]	19.7
CCCn1c(=O)[nH]c(=O)c2c1nc(-c1ccc(SC)cc1)n2CCOC [SJ000416762-1]	69.9
Cc1ccccc1Nc1nc(N)c2ccccc2n1 [SJ000192476-1]	69.9
COc1cccc(CNCCCNc2ccnc3cc(Cc4cccc(C(F)(F)F)c4)ccc23)c1O [SJ000311299-1]	27.5
C=C(C)Cn1cnc2cc(-c3ccc(Cl)cc3)sc2c1=O [SJ000456507-1]	69.9

same assay, conditions: Table 5, dose response TR-FRET screening of 59 quinoline compounds against MAGE-A11:PCF11; read-out: TR-FRET IC50

SMILES	IC50 [µM]
CCCN(CCCNc1ccnc2cc(C(F)(F)F)ccc12)CC1CCCCC1 [SJ000361268-1]	> 70
CCCCCCN(CCC)CCCNc1ccnc2cc(C(F)(F)F)ccc12 [SJ000523083-1]	> 70
Clc1cccc(-c2ccc(CNCCCNc3ccnc4cc(Cl)ccc34)o2)c1 [SJ000523069-1]	> 70
CC(C)(C)c1ccc(Oc2ccc3c(NCCCNCc4ccco4)ccnc3c2)cc1 [SJ000311234-1]	32.1
c1coc(CNCCCNc2ccnc3cc(CC4CCCCC4)ccc23)c1 [SJ000311250-1]	54.9
CCCN(CCCNc1c2ccc(Cl)cc2nc2ccc(OC)cc12)Cc1c(Cl)ccc(Cl)c1Cl [SJ000523021-1]	> 70
c1coc(CNCCCNc2ccnc3cc(-c4cccc5ccccc45)ccc23)c1 [SJ000311274-1]	> 70
CCCN(CCCNc1ccnc2cc(Cl)ccc12)Cc1cc(C(F)(F)F)ccc1OC [SJ000523012-1]	> 70

same assay, conditions: Table 8, representative compounds; read-out: TR-FRET IC50

SMILES	IC50 [µM]
COc1ccc(F)cc1CNCCCNc1ccnc2cc(Cc3ccc(F)cc3)ccc12 [SJ000311245]	35.1
FC(F)(F)c1cccc(Cc2ccc3c(NCCCNCc4cccc5c4OCO5)ccnc3c2)c1 [SJ000311300]	12.8
COc1ccc(F)cc1CNCCCNc1ccnc2cc(-c3ccc(C(C)(C)C)cc3)ccc12 [SJ000311289]	2.04
COC(=O)c1ccc(CNCCCNc2ccnc3cc(Cl)ccc23)cc1 [SJ000523067]	69.9
CCc1c2c(nc3ccc(OC(=O)N4CCC(N5CCCCC5)CC4)cc13)-c1cc3c(c(=O)n1C2)COC(=O)[C@]3(O)CC [SJ000312345]	> 58.7
N#Cc1cccc(CNCCCNc2ccnc3cc(Cl)ccc23)c1 [SJ000523063]	69.9
FC(F)(F)c1cccc(CNCCCNc2ccnc3cc(C(F)(F)F)ccc23)c1 [SJ000521047]	69.9
Cc1cc(C)cc(Cc2ccc3c(NCCCNCc4cccc5c4OCO5)ccnc3c2)c1 [SJ000311320]	16.3
CCC(CC)c1ccc2c(NCCCNCc3cc(F)ccc3OC)ccnc2c1 [SJ000311269]	43
Fc1c(F)c(F)c(CNCCCNC2CCNC3(Cl)CCC23)c(F)c1F (centres unmarked) [SJ000520910]	69.9
COc1ccc(C(F)(F)F)cc1CNCCCNc1ccnc2cc(C(F)(F)F)ccc12 [SJ000521064]	69.1
COc1cccc(CNCCCNc2ccnc3cc(CCC(C)C)ccc23)c1O [SJ000311247]	69.9
COc1cccc(CNCCCNc2ccnc3cc(-c4ccc(F)cc4)ccc23)c1O [SJ000311239]	33.3
COc1ccc(F)cc1CNCCCNc1ccnc2cc(Oc3ccc(Cl)cc3)ccc12 [SJ000311229]	19.7
Clc1ccc2c(NCCCNCc3ccccc3)ccnc2c1 [SJ000361100]	69.9
COc1ccc(-c2ccc3c(NCCCNCc4cccc(OC)c4O)ccnc3c2)cc1 [SJ000311295]	69.9
COc1ccc(F)cc1CNCCCNc1ccnc2cc(Oc3ccc(C(C)(C)C)cc3)ccc12 [SJ000311237]	6.29
COc1ccc(-c2ccc3c(NCCCNCc4cccc5c4OCO5)ccnc3c2)cc1 [SJ000311296]	69.9
